# Measured values published in patent US20240156790A1, “COMPOUNDS, COMPOSITIONS, AND METHODS FOR MODULATING FERROPTOSIS AND TREATING EXCITOTOXIC DISORDERS” (THE TRUSTEES OF COLUMBIA UNIVERSITY IN THE CITY OF NEW YORK, priority 2018, published 2024).
# Assay: Plasma Stability Assay (Examples 6 and 8)
# Type: in vitro ADME, mouse
# Conditions: for half-life at 20 µM: mouse, plasma diluted 1:1 in phosphate buffer, pH 7.4, experiment I, read-out: t1/2 I; for half-life at 20 µM / t1/2 II: plasma half-life; for t1/2 II: experiment II
# Protocol: (§1) Mouse plasma (GeneTex) was centrifuged at 3000 rpm for 10 min at 10° C. with the resulting supernatant withdrawn and diluted 1:1 in phosphate buffer pH 7.4. To a 96-well polypropylene plate was added 50% mouse plasma phosphate buffer (195 μL). A stock solution of analog in DMSO (0.8 μL. 5 mM) or fer-1 (positive control) was added to a separate well and the components were warmed to 37° C. for 5 min with gentle agitation. The reaction was initiated with the addition of analog to plasma, and the reaction kept at 37° C. for gentle agitation for the duration of the assay. At selected time points, aliquots (15 μL) were withdrawn from the plate and quenched upon addition to cold methanol (60 μL), containing an internal standard (5 μM) in a separate 96-well polypropylene plate. At the completion of the final time-point, the samples were centrifuged at 4,000 rpm for 5 min at 4° C. The supernatant (40 μL) was withdrawn and transferred to a sample vial with insert. The samples were analyzed by LC-MS. LC-MS analysis was performed on a platform comprising a Thermo Scientific Dionex Ultimate 3000 and a Bruker amaZon SL equipped with an electrospray ionization source controlled by Bruker Hystar 3.2. Chromatographic separation was performed by injecting 5 μL of the sample onto an Agilent Eclipse Plus C18 column (2.1×50 mm, 3.5 μm) maintained at 20° C. The flow rate was maintained at 400 μL/min. The initial flow conditions were 80% solvent A (water containing 0.1% acetic acid) and 20% solvent B (methanol containing 0.1% acetic acid). Solvent B was raised to 80% over 0.50 min by 1.50 min. Solvent B was raised to 100% by 5.00 min and held there for 3.25 min. […] All analogs were detected in positive mode as [M+H]*. The percent compound remaining at each time-point was calculated as the ratio of the integrated compound peak over the internal standard peak and standardized to the t=0 time-point. Values were plotted in GraphPad Prism 9 and fit with a one phase decay.
# as §1, with “3000 rpm (1053 g) for 10” for “3000 rpm for 10”, “4,000 rpm (1872 g) for 5” for “4,000 rpm for 5”, “phase decay. […]” for “phase decay.”
Structure (SMILES),"stability in mouse plasma, in words",half-life at 20 µM,t1/2 II,time to full degradation in mouse plasma
"Cc1noc(-c2cnc(NC3CCCCC3)c(NC3CCCCC3)c2)n1 [TH-2-31, N^2,N^3-dicyclohexyl-5-(3-methyl-1,2,4-oxadiazol-5-yl)pyridine-2,3-diamine]",not metabolized in mouse plasma,> 4 h,>4 h,
"CCOC(=O)c1ccc(NC2CCCCC2)c(N)c1 [Fer-1, Ferrostatin-1, reference compound]",rapidly degraded in mouse plasma,,,less than 15 min
"Cc1noc(-c2cnc(NC3CCCC3)c(NC3CCCC3)c2)n1 [TH-4-67, N^2,N^3-dicyclopentyl-5-(3-methyl-1,2,4-oxadiazol-5-yl)pyridine-2,3-diamine]",not metabolized in mouse plasma,> 4 h,>4 h,
"CCC(CC)Nc1cc(-c2nc(C)no2)cnc1NC1CCCCC1 [TH-4-55-2, N^2-cyclohexyl-5-(3-methyl-1,2,4-oxadiazol-5-yl)-N^3-(pentan-3-yl)pyridine-2,3-diamine]",not metabolized in mouse plasma,> 4 h,>4 h,
